Test results: ChEMBL document CHEMBL1201862, “PubChem BioAssay data set” (2004)
One block for each molecule: values may come before it. Calls of active or inactive are those of the source.

What was measured:
[1] = viability loss of HPDE-C7K cells – cell-based, fluorescence, HTS, primary screen (AID 431); type: functional; conditions: Homo sapiens
[2] = molecular target: T1, Mannose-6-phosphate isomerase (Homo sapiens, UniProt P34949); experiment: MPI inhibition at elevated mannose 6-phosphate – biochemical, fluorescence intensity, high mannose 6-phosphate, primary screen (AID 1220)
T1 sequence (P34949 whole entry): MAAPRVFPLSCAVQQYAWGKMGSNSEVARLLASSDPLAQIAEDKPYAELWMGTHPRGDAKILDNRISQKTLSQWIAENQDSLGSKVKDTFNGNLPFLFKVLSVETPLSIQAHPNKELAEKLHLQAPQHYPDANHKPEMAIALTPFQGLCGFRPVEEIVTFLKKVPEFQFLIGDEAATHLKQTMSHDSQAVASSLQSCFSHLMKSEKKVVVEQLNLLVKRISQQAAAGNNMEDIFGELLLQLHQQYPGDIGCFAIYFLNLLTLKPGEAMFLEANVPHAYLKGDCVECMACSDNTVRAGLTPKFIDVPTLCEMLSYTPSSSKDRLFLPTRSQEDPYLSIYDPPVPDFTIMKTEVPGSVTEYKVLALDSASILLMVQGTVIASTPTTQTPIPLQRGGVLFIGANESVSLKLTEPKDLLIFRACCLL

[3] = HPDE-C7 pancreatic duct cell viability loss – fluorescence, HTS (AID 430); type: functional, cell-based; conditions: Homo sapiens
[4] = HIV-1 Vif–A3G interaction blockers – biochemical, TR-FRET, GST-Vif 1-94, biotin-A3G peptide, dose response retest, primary screen (AID 1117319); type: functional;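 also: TR-FRET signal of purified GST-Vif binding a biotinylated A3G peptide; inhibitors lower the FRET signal by blocking Vif and A3G binding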
Protein Tat = molecular target: T2, Protein Tat (Human immunodeficiency virus type 1 group M subtype B (isolate HXB2)(HIV-1), UniProt P04608); type: functional;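 also: tat binding to TAR RNA read out by fluorescence polarization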
T2 sequence (P04608 whole entry): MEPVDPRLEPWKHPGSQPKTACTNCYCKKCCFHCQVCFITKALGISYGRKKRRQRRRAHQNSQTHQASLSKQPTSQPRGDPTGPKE

[5] = antiviral protection against BTV-induced cell death – arbovirus, BSR cells, confirmation (AID 1250); type: functional;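 also: protection from viral cytopathic effect measured as cell viability by ATP luminescence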
[6] = Trypanosoma cruzi growth suppression in host cells – NIH3T3 host cells, beta-gal luminescence, confirmation (AID 2044); type: functional, cell-based;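 also: intracellular parasites grown in NIH/3T3 mouse fibroblasts as host cells; luminescent beta-galactosidase reporter signal from transgenic T. cruzi replicating inside host cells; inhibitors lower the luminescence signal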
[7] = NIH3T3 cell viability loss – ATP luminescence, mouse fibroblasts, counter-screen, dose response (AID 2010); type: functional, cell-based;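 also: cells exposed to compound for about 90 hours before reading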
cells [8] = experiment: cells
[9] = molecular target: T3, Carboxy-terminal domain RNA polymerase II polypeptide A small phosphatase 1 (Homo sapiens, UniProt Q9GZU7); experiment: CTDSP1 inhibitors, concentration-response, biochemical, absorbance readout, ultra-high-throughput screen actives (AID 540297); type: functional
T3 sequence (Q9GZU7 whole entry): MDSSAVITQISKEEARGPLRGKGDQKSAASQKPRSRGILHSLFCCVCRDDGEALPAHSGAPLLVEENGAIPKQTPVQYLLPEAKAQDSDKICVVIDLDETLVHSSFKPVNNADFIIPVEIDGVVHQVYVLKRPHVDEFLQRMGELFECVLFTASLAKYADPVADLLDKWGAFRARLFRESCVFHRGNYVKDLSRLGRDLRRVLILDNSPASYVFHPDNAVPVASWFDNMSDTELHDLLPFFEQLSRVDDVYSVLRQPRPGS

Genome polyprotein = Genome polyprotein (Hepatitis C virus, UniProt Q2Q167); experiment: disruption of hepatitis C core self-association – biochemical, TR-FRET, dose response (AID 2159); parameters: species or system Hepacivirus hominis;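 also: blocks dimerization of HCV core protein measured by TR-FRET between tagged core106 pairs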
[10] = molecular target: Induced myeloid leukemia cell differentiation protein Mcl-1 (Homo sapiens, UniProt Q07820); type: functional
Cytochrome P450 3A4 = Cytochrome P450 3A4 (Homo sapiens, UniProt P08684);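 also: CYP3A4 tested as one member of a cytochrome P450 panel screen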
Cytochrome P450 2C19 = Cytochrome P450 2C19 (Homo sapiens, UniProt P33261); experiment: Cytochrome panel assay with activity outcomes. Panel member name: p450-cyp2c19 Compounds with AC50 equal or less than 10 uM are considered active; type: functional; conditions: read-out: AC50
Vero = experiment: mammalian cell viability reduction – secondary assay, cytotoxicity control for West Nile virus antiviral project, dose response (AID 1650); type: functional; conditions: Chlorocebus sabaeus
cells [11] = type: functional, cell-based
[12] = molecular target: T1, Mannose-6-phosphate isomerase; experiment: MPI enzyme activity inhibition – biochemical, fluorescence intensity, coupled assay, primary screen (AID 1209)
[13] = molecular target: Intestinal-type alkaline phosphatase (Mus musculus, UniProt P24822); experiment: PubChem AID 488874; type: functional
[14] = molecular target: T4, Alkaline phosphatase, tissue-nonspecific isozyme (Homo sapiens, UniProt P05186); experiment: activation of tissue-nonspecific alkaline phosphatase – biochemical, TNAP isozyme, human IAP uHTS hits, selectivity assay for human IAP activator project, dose response (AID 488886); type: functional;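 also: potency of compounds raising TNAP activity as a selectivity check on IAP activators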
T4 sequence (P05186 whole entry): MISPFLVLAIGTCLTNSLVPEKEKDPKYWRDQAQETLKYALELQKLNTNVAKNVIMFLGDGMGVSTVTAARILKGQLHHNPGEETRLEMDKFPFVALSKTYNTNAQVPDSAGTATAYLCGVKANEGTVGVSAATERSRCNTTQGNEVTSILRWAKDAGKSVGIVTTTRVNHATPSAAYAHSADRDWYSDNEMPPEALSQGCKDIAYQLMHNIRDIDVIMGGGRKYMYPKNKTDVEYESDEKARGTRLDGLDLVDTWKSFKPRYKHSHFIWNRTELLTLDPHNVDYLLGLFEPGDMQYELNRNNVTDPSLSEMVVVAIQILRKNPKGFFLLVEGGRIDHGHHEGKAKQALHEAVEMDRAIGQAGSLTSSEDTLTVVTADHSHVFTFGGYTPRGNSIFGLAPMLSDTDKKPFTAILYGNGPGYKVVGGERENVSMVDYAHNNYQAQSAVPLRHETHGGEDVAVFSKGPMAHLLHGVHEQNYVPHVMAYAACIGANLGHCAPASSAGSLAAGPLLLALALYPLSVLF

cells [15] = type: functional, cell-based; remark: listed apart in the source
INS1 = experiment: INS-1E survival protection against cytokine death – cell-based, luminescence, retest, dose response (AID 449756); type: functional; conditions: Rattus norvegicus;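 also: cell death triggered by IL-1 beta plus TNF-alpha plus IFN-gamma mixture; protective hits raise ATP signal compared with cytokine alone wells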
[16] = molecular target: T5, Intestinal-type alkaline phosphatase (Homo sapiens, UniProt P09923); experiment: human intestinal alkaline phosphatase activators, dose response, biochemical, luminescence, uHTS hits (AID 463120); type: functional
[17] = molecular target: FAD-linked sulfhydryl oxidase ALR (Homo sapiens, UniProt P55789); experiment: ALR-catalysed DTT oxidation blockers – biochemical, H2O2 detection, luminescence, cherry-pick, dose response (AID 493248)
[18] = molecular target: T5, Intestinal-type alkaline phosphatase; experiment: activation of human intestinal alkaline phosphatase – biochemical, luminescent, uHTS hits, set 2, dose response (AID 488817); type: functional;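 also: potency of activators that raise enzyme activity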
[19] = molecular target: T6, Rac GTPase-activating protein 1 (Homo sapiens, UniProt Q9H0H5); experiment: blockers of MgcRacGAP-driven Rac1 GTP hydrolysis – biochemical, ADP Hunter fluorescence, primary and confirmatory, confirmation (AID 624330); type: functional
T6 sequence (Q9H0H5 whole entry): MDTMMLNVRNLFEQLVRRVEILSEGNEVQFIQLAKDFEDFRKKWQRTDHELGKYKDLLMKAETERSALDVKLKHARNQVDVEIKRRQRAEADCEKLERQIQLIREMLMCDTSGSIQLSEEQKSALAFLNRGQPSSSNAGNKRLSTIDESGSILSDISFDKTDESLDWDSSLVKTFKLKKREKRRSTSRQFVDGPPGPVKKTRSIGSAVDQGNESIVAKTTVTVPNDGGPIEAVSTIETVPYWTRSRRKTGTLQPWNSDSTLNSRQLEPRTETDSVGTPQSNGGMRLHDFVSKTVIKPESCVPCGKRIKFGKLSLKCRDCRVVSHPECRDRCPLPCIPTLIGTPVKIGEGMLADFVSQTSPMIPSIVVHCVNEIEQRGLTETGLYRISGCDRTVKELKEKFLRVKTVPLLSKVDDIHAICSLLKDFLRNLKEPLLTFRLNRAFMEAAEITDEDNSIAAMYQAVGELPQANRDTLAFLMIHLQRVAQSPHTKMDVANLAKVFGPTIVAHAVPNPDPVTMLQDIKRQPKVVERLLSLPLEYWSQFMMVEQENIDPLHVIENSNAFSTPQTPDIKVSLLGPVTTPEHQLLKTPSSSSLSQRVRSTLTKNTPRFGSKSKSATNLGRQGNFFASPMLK

T5 sequence (P09923 whole entry): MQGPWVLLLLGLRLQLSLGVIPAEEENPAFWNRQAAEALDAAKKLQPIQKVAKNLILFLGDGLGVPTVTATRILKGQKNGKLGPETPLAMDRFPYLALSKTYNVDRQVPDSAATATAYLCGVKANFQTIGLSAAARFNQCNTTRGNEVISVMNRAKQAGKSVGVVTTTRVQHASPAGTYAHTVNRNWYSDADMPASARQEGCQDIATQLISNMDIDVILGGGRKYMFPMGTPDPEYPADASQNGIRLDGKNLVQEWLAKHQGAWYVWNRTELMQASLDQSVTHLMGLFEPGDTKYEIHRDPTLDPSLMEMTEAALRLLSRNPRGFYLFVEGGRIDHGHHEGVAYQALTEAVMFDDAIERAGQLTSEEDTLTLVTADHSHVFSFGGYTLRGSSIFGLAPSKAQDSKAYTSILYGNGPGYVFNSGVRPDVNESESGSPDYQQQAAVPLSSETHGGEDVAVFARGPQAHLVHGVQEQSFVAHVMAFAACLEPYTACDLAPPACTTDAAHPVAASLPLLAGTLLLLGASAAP
Sequence of Genome polyprotein (Q2Q167 whole entry): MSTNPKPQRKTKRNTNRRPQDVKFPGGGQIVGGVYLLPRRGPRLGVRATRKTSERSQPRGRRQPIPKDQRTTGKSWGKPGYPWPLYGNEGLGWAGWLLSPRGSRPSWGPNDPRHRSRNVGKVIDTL
Sequence of FAD-linked sulfhydryl oxidase ALR (P55789 whole entry): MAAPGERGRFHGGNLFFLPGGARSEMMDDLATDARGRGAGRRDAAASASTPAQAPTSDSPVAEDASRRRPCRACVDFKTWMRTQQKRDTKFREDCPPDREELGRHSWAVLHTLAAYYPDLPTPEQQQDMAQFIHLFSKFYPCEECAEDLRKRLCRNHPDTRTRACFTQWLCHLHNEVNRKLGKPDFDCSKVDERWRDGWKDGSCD
Sequence of Induced myeloid leukemia cell differentiation protein Mcl-1 (Q07820 whole entry): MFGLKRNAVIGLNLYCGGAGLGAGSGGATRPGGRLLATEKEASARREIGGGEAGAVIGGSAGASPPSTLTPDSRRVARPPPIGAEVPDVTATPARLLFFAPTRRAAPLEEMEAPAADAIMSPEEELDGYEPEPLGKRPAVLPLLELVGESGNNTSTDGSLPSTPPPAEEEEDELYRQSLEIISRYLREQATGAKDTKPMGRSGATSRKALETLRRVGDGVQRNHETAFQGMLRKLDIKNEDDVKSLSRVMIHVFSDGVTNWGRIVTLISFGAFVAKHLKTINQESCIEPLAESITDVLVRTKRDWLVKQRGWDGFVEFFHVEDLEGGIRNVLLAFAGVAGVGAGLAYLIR
Sequence of Cytochrome P450 2C19 (P33261 whole entry): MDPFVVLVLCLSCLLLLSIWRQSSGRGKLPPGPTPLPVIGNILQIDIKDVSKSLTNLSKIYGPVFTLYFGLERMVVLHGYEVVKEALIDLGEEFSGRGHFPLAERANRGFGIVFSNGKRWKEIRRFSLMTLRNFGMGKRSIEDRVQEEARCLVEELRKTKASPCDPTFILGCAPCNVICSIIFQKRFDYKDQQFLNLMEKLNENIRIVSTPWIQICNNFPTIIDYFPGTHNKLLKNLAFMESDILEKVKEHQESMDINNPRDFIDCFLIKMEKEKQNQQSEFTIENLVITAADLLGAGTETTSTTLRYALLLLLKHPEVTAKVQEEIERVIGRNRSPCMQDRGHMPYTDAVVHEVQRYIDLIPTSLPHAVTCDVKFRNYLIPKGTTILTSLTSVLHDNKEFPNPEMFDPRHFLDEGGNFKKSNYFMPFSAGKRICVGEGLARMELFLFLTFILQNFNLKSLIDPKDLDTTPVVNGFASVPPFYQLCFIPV
Sequence of Cytochrome P450 3A4 (P08684 whole entry): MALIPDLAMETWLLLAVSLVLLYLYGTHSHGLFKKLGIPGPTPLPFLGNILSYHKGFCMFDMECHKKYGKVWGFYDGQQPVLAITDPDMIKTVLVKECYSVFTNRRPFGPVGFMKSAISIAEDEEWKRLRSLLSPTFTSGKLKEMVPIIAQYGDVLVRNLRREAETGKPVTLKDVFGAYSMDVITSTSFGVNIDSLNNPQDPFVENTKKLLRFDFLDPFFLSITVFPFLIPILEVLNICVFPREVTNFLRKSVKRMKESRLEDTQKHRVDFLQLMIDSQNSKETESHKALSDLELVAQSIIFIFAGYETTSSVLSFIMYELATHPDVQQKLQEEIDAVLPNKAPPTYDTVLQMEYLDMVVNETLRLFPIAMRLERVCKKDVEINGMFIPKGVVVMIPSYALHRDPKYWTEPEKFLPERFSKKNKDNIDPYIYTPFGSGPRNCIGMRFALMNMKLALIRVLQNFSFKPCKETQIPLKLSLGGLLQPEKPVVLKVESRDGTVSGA
Sequence of Intestinal-type alkaline phosphatase (Mus musculus, UniProt P24822) (P24822 whole entry): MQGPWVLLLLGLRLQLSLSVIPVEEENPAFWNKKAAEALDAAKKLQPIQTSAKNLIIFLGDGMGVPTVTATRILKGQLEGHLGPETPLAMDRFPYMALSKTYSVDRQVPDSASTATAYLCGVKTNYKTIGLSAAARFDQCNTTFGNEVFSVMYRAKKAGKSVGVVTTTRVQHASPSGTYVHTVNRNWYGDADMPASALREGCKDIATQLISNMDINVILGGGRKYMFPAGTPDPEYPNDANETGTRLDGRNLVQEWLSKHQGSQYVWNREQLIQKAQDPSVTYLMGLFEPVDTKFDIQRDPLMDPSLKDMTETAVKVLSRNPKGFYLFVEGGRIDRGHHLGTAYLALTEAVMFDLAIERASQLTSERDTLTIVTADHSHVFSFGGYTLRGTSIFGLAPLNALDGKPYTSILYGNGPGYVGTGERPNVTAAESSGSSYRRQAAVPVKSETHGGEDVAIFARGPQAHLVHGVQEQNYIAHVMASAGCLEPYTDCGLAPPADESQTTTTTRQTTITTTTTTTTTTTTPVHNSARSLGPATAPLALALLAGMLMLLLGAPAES

Compound: O=C(CCN1CCN(c2ccccc2F)CC1)c1ccc(Br)cc1
EC50 [1]: 8.84 µM (active)
IC50 [2]: 38.2 µM (active)
EC50 [3]: 7.29 µM (active)

IC50 [4]: > 100 µM (active)
IC50 (Protein Tat): > 100 µM (active)
Compound: CCOc1ccc(-n2c(Cc3cc(O)nc(O)n3)nnc2SCC(N)=O)cc1

Compound: CCc1cc(C(=O)O)c(NC(=O)c2cc(OC)c(OC)c(OC)c2)s1
IC50 [5]: 29.2 µM (active)

Compound: CN1CCN(CC(C)(C)NS(=O)(=O)c2ccc(Cl)cc2)CC1
EC50 [6]: < 0.1 µM (active)
EC50 [7]: > 60 µM (not active)
EC50 (cells [8]): 0.203 µM (active)

IC50 [9]: 5.01 µM (active)
IC50 (Genome polyprotein): > 49.8 µM (not active)
IC50 [10]: 1.15 µM (active)
Compound: Cc1cc(C)n2c(SC/C(O)=C(\C#N)c3nc4ccccc4[nH]3)nnc2n1

Compound: CN(C)CCCCCN(C)Cc1cc2ccccc2o1
EC50 [6]: < 0.1 µM (active)
EC50 [7]: 16.4 µM (active)
EC50 (cells [8]): 0.025 µM (active)

AC50 (Cytochrome P450 3A4): inconclusive
AC50 (Cytochrome P450 2C19): 7.94 µM (inconclusive)
Compound: Cc1ccc(-c2cc(C(F)F)n3ncc(C(=O)Nc4c(C)nn(Cc5c(Cl)cccc5Cl)c4C)c3n2)cc1
CC50 (Vero): > 100 µM (active)

Compound: CCn1c(C)nc2cc(C(=O)N/N=C/c3cccc(O)c3O)ccc21
EC50 (cells [11]): 10.9 µM (active)
IC50 [2]: > 50 µM (not active)
IC50 [12]: > 50 µM (not active)
IC50 [13]: 44 µM (active)
EC50 [14]: 11 µM (active)
EC50 (cells [15]): > 350 µM (not active)
AC50 (INS1): 2.79 µM (active)
EC50 [16]: 6.34 µM (active)
AC50 [17]: 3.82 µM (active)
EC50 [18]: 9.71 µM (active)
IC50 [19]: 119 µM (active)
